Assay results from article PMC9693575, “Isopropyl Amino Acid Esters Ionic Liquids as Vehicles for Non-Steroidal Anti-Inflammatory Drugs in Potential Topical Drug Delivery Systems with Antimicrobial Activity” (International Journal of Molecular Sciences, 2022).
Where two headings read alike, the source gives them in different places.

Experiments:
[1] = Solubility in organic solvents (modified Vogel's method); details: 25 °C
Micrococcus Luteus = assay: Disc diffusion antimicrobial susceptibility test, Micrococcus luteus; assay type: cell-based; design: key to Inhibition diameter: -: no growth of the organism; details: for zone of inhibition at 600000 µg/mL: solution transferred to disc 600 mg cm^−3; for zone of inhibition at 800000 µg/mL: solution transferred to disc 800 mg cm^−3
[2] = Solubility in water and phosphate buffers; details: for Solubility in Water, as active substance: deionized water, 25 °C; for Solubility in Water, as active substance / Solubility in Phosphate Buffer pH = 5.4, as active substance / Solubility in Phosphate Buffer pH = 7.4, as active substance: AS = unmodified acid; for Solubility in Phosphate Buffer pH = 5.4, as active substance: pH 5.4, 25 °C; for Solubility in Phosphate Buffer pH = 7.4, as active substance: pH 7.4, 25 °C
Description: This study aims to compare the influence of amino acid structure on the physicochemical properties of NSAID salts with the isopropyl ester of amino acids.

[3] = test system: Staphylococcus epidermidis; assay: Disc diffusion antimicrobial susceptibility test, Staphylococcus epidermidis; assay type: cell-based; design: key to Inhibition diameter: -: no growth of the organism
Protocol: (§1) The plates were incubated for 24 h at 37 °C.

Escherichia coli = assay: Disc diffusion antimicrobial susceptibility test, Escherichia coli; assay type: cell-based; design: key to Inhibition diameter: -: no growth of the organism; details: for zone of inhibition at 400000 µg/mL: solution transferred to disc 400 mg cm^−3; for zone of inhibition at 600000 µg/mL: solution transferred to disc 600 mg cm^−3
Protocol: as §1

[4] = n-octanol-water partition coefficient (logP), shake flask method; assay type: physicochemical; details: n-octanol-water, shake flask; read-out: LogP
[5] = pKa / pKB by potentiometric acid-base titration and formation constant log(KS); details: calculated from pKA of acid and pKB of base
Method in brief: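 Potentiometric acid-base titration used 0.1 M NaOH as titrant for pKA of acids. For ester hydrochlorides, aqueous HCl was added first, followed by dropwise titration with 5 mM titrant.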

[6] = Thermogravimetric analysis (thermal stability); details: air atmosphere, 10 °C min−1; for TDTGmax, maximum decomposition temperature: DTG; for TTGonset, the onset of the thermal degradation: TG
Method in brief: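 Samples of 5–8 mg heated in Al2O3 crucibles under air (25 cm3 min−1) with nitrogen flow (10 cm3 min−1). Start of thermal degradation taken as the onset of the TG curve in the first decomposition phase.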

[7] = 25 °C; cited from earlier work
[8] = cited from earlier work
[9] = Micrococcus luteus, 24 h, solution transferred to disc 100 mg cm^−3, read-out: Inhibition diameter
[10] = Micrococcus luteus, 24 h, solution transferred to disc 200 mg cm^−3, read-out: Inhibition diameter
[11] = Micrococcus luteus, 24 h, solution transferred to disc 400 mg cm^−3, read-out: Inhibition diameter
[12] = Micrococcus luteus, 24 h, read-out: Inhibition diameter
[13] = solution transferred to disc 25 mg cm^−3
[14] = solution transferred to disc 50 mg cm^−3
[15] = Staphylococcus epidermidis, 24 h, solution transferred to disc 600 mg cm^−3, read-out: Inhibition diameter
[16] = Staphylococcus epidermidis, 24 h, solution transferred to disc 800 mg cm^−3, read-out: Inhibition diameter
[17] = solution transferred to disc 100 mg cm^−3
[18] = Escherichia coli, 24 h, solution transferred to disc 100 mg cm^−3, read-out: Inhibition diameter
[19] = Escherichia coli, 24 h, solution transferred to disc 200 mg cm^−3, read-out: Inhibition diameter
[20] = Escherichia coli, 24 h, read-out: Inhibition diameter
[21] = solution transferred to disc 200 mg cm^−3
[22] = solution transferred to disc 400 mg cm^−3

CSCC[C@H](N)C(=O)OC(C)C.O=C(O)c1ccccc1O [[L-MetOiPr][SA], L-methionine isopropyl ester salicylate]
Solubility in Chloroform (39.1) [1]: ○ (soluble >100 mg cm^−3) | Solubility in DMSO (45.1) [1]: ○ (soluble >100 mg cm^−3) | Solubility in Dichloromethane (40.7) [1]: ○ (soluble >100 mg cm^−3) | Solubility in Diethyl Ether (34.5) [1]: ○ (soluble >100 mg cm^−3) | Solubility in Ethanol (59.1) [1]: ○ (soluble >100 mg cm^−3) | Solubility in Ethyl Acetate (38.1) [1]: ○ (soluble >100 mg cm^−3) | Solubility in Hexane (31.0) [1]: ● (insoluble <33 mg cm^−3) | Solubility in Toluene (33.9) [1]: ○ (soluble >100 mg cm^−3) | zone of inhibition at 100000 µg/mL (Micrococcus Luteus; [9]): 6.1 ± 0.1 mm | zone of inhibition at 200000 µg/mL (Micrococcus Luteus; [10]): 6.3 ± 0.1 mm | zone of inhibition at 400000 µg/mL (Micrococcus Luteus; [11]): 7.3 ± 0.4 mm | zone of inhibition at 600000 µg/mL (Micrococcus Luteus; [12]): 8.1 ± 0.9 mm | zone of inhibition at 800000 µg/mL (Micrococcus Luteus; [12]): 10.5 ± 1 mm | Inhibition diameter (Micrococcus Luteus; [13]): - | Inhibition diameter (Micrococcus Luteus; [14]): - | Solubility in Water, as active substance [2]: 6.749 ± 0.533 gAS dm^−3 | Solubility in Phosphate Buffer pH = 5.4, as active substance [2]: 4.437 ± 0.007 gAS dm^−3 | solubility thermodynamic ([2]; pH 5.4, aqueous buffer): 10.55 ± 0.007 mg/mL | Solubility in Phosphate Buffer pH = 7.4, as active substance [2]: 7.586 ± 0.046 gAS dm^−3 | solubility thermodynamic ([2]; pH 7.4, aqueous buffer): 18.04 ± 0.046 mg/mL | solubility thermodynamic ([2]; water): 16 ± 0.533 mg/mL | zone of inhibition at 200000 µg/mL ([3]; Staphylococcus epidermidis, 24 h, solution transferred to disc 200 mg cm^−3, read-out: Inhibition diameter): 6.6 ± 0.2 mm | zone of inhibition at 400000 µg/mL ([3]; Staphylococcus epidermidis, 24 h, solution transferred to disc 400 mg cm^−3, read-out: Inhibition diameter): 7.1 ± 0.1 mm | zone of inhibition at 600000 µg/mL [3, 15]: 7.5 ± 0.2 mm | zone of inhibition at 800000 µg/mL [3, 16]: 9.2 ± 0.5 mm | Inhibition diameter [3, 13]: - | Inhibition diameter [3, 14]: - | Inhibition diameter [3, 17]: - | zone of inhibition at 100000 µg/mL (Escherichia coli; [18]): 7.8 ± 0.2 mm | zone of inhibition at 200000 µg/mL (Escherichia coli; [19]): 14.4 ± 0.8 mm | zone of inhibition at 400000 µg/mL (Escherichia coli; [20]): 16.4 ± 0.3 mm | zone of inhibition at 600000 µg/mL (Escherichia coli; [20]): 18.8 ± 0.4 mm | Inhibition diameter (Escherichia coli; [13]): - | Inhibition diameter (Escherichia coli; [14]): - | logP [4]: 1.78 ± 0.035 | Log(KS) formation constant [5]: 7.00 | TDTGmax, maximum decomposition temperature [6]: 205.0 °C | TTGonset, the onset of the thermal degradation [6]: 161.1 °C

CC(C)OC(=O)[C@@H](N)[C@@H](C)O.O=C(O)c1ccccc1O [[L-ThrOiPr][SA], L-threonine isopropyl ester salicylate]
Solubility in Chloroform (39.1) [1]: ○ (soluble >100 mg cm^−3) | Solubility in DMSO (45.1) [1]: ○ (soluble >100 mg cm^−3) | Solubility in Dichloromethane (40.7) [1]: ○ (soluble >100 mg cm^−3) | Solubility in Diethyl Ether (34.5) [1]: ● (insoluble <33 mg cm^−3) | Solubility in Ethanol (59.1) [1]: ○ (soluble >100 mg cm^−3) | Solubility in Ethyl Acetate (38.1) [1]: ○ (soluble >100 mg cm^−3) | Solubility in Hexane (31.0) [1]: ● (insoluble <33 mg cm^−3) | Solubility in Toluene (33.9) [1]: ● (insoluble <33 mg cm^−3) | concentrations at which the antimicrobial effect was observed (Micrococcus Luteus; M. Luteus): in all tested concentration ranges | zone of inhibition at 25000 µg/mL (Micrococcus Luteus; Micrococcus luteus, 24 h, solution transferred to disc 25 mg cm^−3, read-out: Inhibition diameter): 6.3 ± 0.1 mm | zone of inhibition at 50000 µg/mL (Micrococcus Luteus; Micrococcus luteus, 24 h, solution transferred to disc 50 mg cm^−3, read-out: Inhibition diameter): 6.6 ± 0.2 mm | zone of inhibition at 100000 µg/mL (Micrococcus Luteus; [9]): 7 ± 0.1 mm | zone of inhibition at 200000 µg/mL (Micrococcus Luteus; [10]): 7.6 ± 0.2 mm | zone of inhibition at 400000 µg/mL (Micrococcus Luteus; [11]): 8.1 ± 0.1 mm | zone of inhibition at 600000 µg/mL (Micrococcus Luteus; [12]): 8.7 ± 0.5 mm | zone of inhibition at 800000 µg/mL (Micrococcus Luteus; [12]): 10.2 ± 0.7 mm | Solubility in Water, as active substance [2]: 17.925 ± 0.241 gAS dm^−3 | Solubility in Phosphate Buffer pH = 5.4, as active substance [2]: 13.978 ± 0.018 gAS dm^−3 | solubility thermodynamic ([2]; pH 5.4, aqueous buffer): 30.189 ± 0.018 mg/mL | Solubility in Phosphate Buffer pH = 7.4, as active substance [2]: 18.777 ± 0.125 gAS dm^−3 | solubility thermodynamic ([2]; pH 7.4, aqueous buffer): 40.76 ± 0.125 mg/mL | solubility thermodynamic ([2]; water): 38.71 ± 0.241 mg/mL | Inhibition diameter [3, 13]: - | Inhibition diameter [3, 14]: - | Inhibition diameter [3, 17]: - | Inhibition diameter [3, 21]: - | Inhibition diameter [3, 22]: - | Inhibition diameter ([3]; solution transferred to disc 600 mg cm^−3): - | Inhibition diameter ([3]; solution transferred to disc 800 mg cm^−3): - | Inhibition diameter ([3]; solution transferred to disc 1000 mg cm^−3): - | zone of inhibition at 400000 µg/mL (Escherichia coli; [20]): 7.3 ± 0.2 mm | zone of inhibition at 600000 µg/mL (Escherichia coli; [20]): 9.3 ± 0.4 mm | Inhibition diameter (Escherichia coli; [13]): - | Inhibition diameter (Escherichia coli; [14]): - | Inhibition diameter (Escherichia coli; [17]): - | Inhibition diameter (Escherichia coli; [21]): - | logP [4]: 1.55 ± 0.021 | Log(KS) formation constant [5]: 7.94 | TDTGmax, maximum decomposition temperature [6]: 191.4 °C | TTGonset, the onset of the thermal degradation [6]: 127.2 °C

CC(C)OC(=O)C(N)C(C)C.O=C(O)c1ccccc1O [[L-ValOiPr][SA]]
Solubility in Chloroform (39.1) [7]: ○ [49] (soluble >100 mg cm^−3) | Solubility in DMSO (45.1) [7]: ○ [49] (soluble >100 mg cm^−3) | Solubility in Dichloromethane (40.7) [7]: ○ [49] (soluble >100 mg cm^−3) | Solubility in Diethyl Ether (34.5) [7]: ◐ [49] (partially soluble 33–100 mg cm^−3) | Solubility in Ethanol (59.1) [7]: ○ [49] (soluble >100 mg cm^−3) | Solubility in Ethyl Acetate (38.1) [7]: ◐ [49] (partially soluble 33–100 mg cm^−3) | Solubility in Hexane (31.0) [7]: ● [49] (insoluble <33 mg cm^−3) | Solubility in Toluene (33.9) [7]: ○ [49] (soluble >100 mg cm^−3) | zone of inhibition at 600000 µg/mL (Micrococcus Luteus; [12]): 8.6 ± 0.3 mm | zone of inhibition at 800000 µg/mL (Micrococcus Luteus; [12]): 15.9 ± 1.2 mm | Inhibition diameter (Micrococcus Luteus; [13]): - | Inhibition diameter (Micrococcus Luteus; [14]): - | Inhibition diameter (Micrococcus Luteus; [17]): - | Inhibition diameter (Micrococcus Luteus; [21]): - | Inhibition diameter (Micrococcus Luteus; [22]): - | TDTGmax, maximum decomposition temperature ([8]; DTG): 197.6 [49] °C | TTGonset, the onset of the thermal degradation ([8]; TG): 124.6 [49] °C | Solubility in Water, as active substance [2]: 7.761 ± 2.044 gAS dm^−3 | Solubility in Phosphate Buffer pH = 5.4, as active substance [2]: 5.259 ± 0.014 gAS dm^−3 | solubility thermodynamic ([2]; pH 5.4, aqueous buffer): 11.32 ± 0.014 mg/mL | Solubility in Phosphate Buffer pH = 7.4, as active substance [2]: 8.702 ± 0.027 gAS dm^−3 | solubility thermodynamic ([2]; pH 7.4, aqueous buffer): 18.73 ± 0.027 mg/mL | solubility thermodynamic ([2]; water): 16.7 ± 2.04 mg/mL | zone of inhibition at 600000 µg/mL [3, 15]: 6.7 ± 0.3 mm | zone of inhibition at 800000 µg/mL [3, 16]: 8.4 ± 0.3 mm | Inhibition diameter [3, 13]: - | Inhibition diameter [3, 14]: - | Inhibition diameter [3, 17]: - | Inhibition diameter [3, 21]: - | Inhibition diameter [3, 22]: - | zone of inhibition at 50000 µg/mL (Escherichia coli; Escherichia coli, 24 h, solution transferred to disc 50 mg cm^−3, read-out: Inhibition diameter): 6.2 ± 0.1 mm | zone of inhibition at 100000 µg/mL (Escherichia coli; [18]): 6.3 ± 0.2 mm | zone of inhibition at 200000 µg/mL (Escherichia coli; [19]): 7.5 ± 0.1 mm | zone of inhibition at 400000 µg/mL (Escherichia coli; [20]): 8.9 ± 0.4 mm | zone of inhibition at 600000 µg/mL (Escherichia coli; [20]): 12.6 ± 0.3 mm | Inhibition diameter (Escherichia coli; [13]): - | logP [4]: 1.61 ± 0.057 | Log(KS) formation constant [5]: 7.03
